{"source": "patent US8906602B2", "about": "“Methods for identifying candidate compounds for treating, reducing, or preventing pathogenic infections” (The General Hospital Corporation, priority 2004, dated 2014)", "key": {"[1]": {"tested_on": "Na^+-translocating NADH-quinone oxidoreductases", "conditions": "Häse et al. 2001; cited from earlier work"}, "cytochrome": {"tested_on": "cytochrome", "conditions": "Lightbown et al. 1956; cited from earlier work"}, "Bacillus subtilis": {"tested_on": "Bacillus subtilis", "assay": "Antimicrobial activity assay on well-plates (growth inhibition zones)", "assay_type": "cell-based", "conditions": "well-plate, 60 μl of 25% methanol solution of test extract or pure HAQ, overnight 37° C.; FIG. 10", "source_text": "Bacillus subtilis growth on well plates was scored for inhibition by culture extracts of PA14 and the mvfR, pqsA, and pqsE mutant strains (left plate), and by purified PQS, HHQ and HQNO, versus PA14 extract (right plate).\nFluorescent pseudomonads, and perhaps just P. aeruginosa, are the only microorganisms identified to produce HAQs (Budzikiewicz, FEMS Microbiol. Rev. 104, 209-228, 1993; Lépine et al., Biochim. Biophys. Acta 1622, 36-40, 2003). Although their biological functions are unknown, many HAQs were initially isolated as antibiotics (Hays et al., J. Biol. Chem. 159, 725-750, 1945; Wells, J. Biol. Chem. 196, 331-340, 1952). We assayed the antimicrobial activity of total organic extracts from PA14 and mvfR, pqsA, and pqsE mutant strains, and purified PQS, HHQ and HQNO, against the Gram-positive species Staphylococcus aureus and Bacillus subtilis. […] Thus, MvfR regulates the production of antibiotics that can function in niche competition against other bacteria. Because the pqsE mutant and PA14 produce roughly the same levels of antimicrobial activity, these antibiotic compounds are probably HAQs, instead of other non-polar compounds whose synthesis is under PQS control.\nHAQ antimicrobial activity was evaluated on well-plates. […] Plates were incubated overnight at 37° C. and scored for growth inhibition zones around the test wells."}, "pqsA-lacZ reporter": {"tested_on": "pqsA-lacZ reporter", "assay": "pqsA-lacZ reporter induction in pqsA mutant cultures", "assay_type": "cell-based, Pseudomonas aeruginosa pqsA mutant", "conditions": "pqsA mutant background, compounds added at onset of culture at 10 mg/L", "source_text": "Activity is reported as Miller units (MU), corrected for the OD of the cultures at 600 nm.\n(§1) P. aeruginosa strains include: wild type PA14 (Rahme et al., Science 268, 1899-1902, 1995); an mvfR mutant (Cao et al., Proc. Natl. Acad. Sci. USA 98, 14613 -8, 2001); 8C12, a TnphoA-insertion mutant of pqsB (Mahajan-Miklos et al., Cell 96, 47-56, 1999); and a lasR::Gm mutant, which was generated by allelic exchange using pSB219.9A as described (Beatson et al., J Bacteriol 184, 3598-604, 2002). A pqsE deletion mutant was generated via pEX18Ap allelic replacement, using sucrose selection, resulting in a 570 bp non-polar deletion covering 65% of the sequence (Hoang et al., Gene 212, 77-86, 1998). The pqsA (U479) TnphoA mutant was obtained from the PA14 Transposon Insertion Mutant Database. For complementation analysis, mvfR was cloned into pDN18 (Nunn et al., J. Bacteriol. 172, 1990). The reporter fusions phzABC-lacZ and hcnA′-lacZ have been described (Whiteley et al., J. Bacteriol. 182, 4356-60, 2000; Pessi et al., J. Bacteriol. 182, 6940-9, 2000). Plasmids were transformed into PA14 by electroporation (Smith et al., Nuc. Acid. Res. 17, 10509, 1989). Specific β-galactosidase activity was determined as reported (Miller, Cold Spring Harbor Laboratory, Cold Spring Harbor, N.Y., pp. 352-355 1972)."}, "pyocyanin production": {"tested_on": "pyocyanin production", "assay": "Pyocyanin production in pqs or mvfR mutant cultures", "assay_type": "cell-based, Pseudomonas aeruginosa pqs or mvfR mutants", "conditions": "addition to cultures of any pqs or mvfR mutants", "protocol": "Whereas pqsA or pqsB inactivation abolish HAQ production, a pqsE mutant produces essentially normal HAQ levels (FIG. 12), and HAQ-related antibiotic activity (FIG. 6). […] Supporting this notion, mvfR overexpression gave excessive pyocyanin accumulation (FIG. 12). […] Such compounds would not be detected by our assay, which was aimed at extracellular compounds. Loss of these compounds might underlie the reduced pathogenicity of a pqsE mutant.\nBacteria were grown in Luria-Bertani broth or on 1.5% Bacto-agar (Difco) LB plates. Freshly plated cells served as inoculum. For pyocyanin production, bacteria were grown in King's A broth (King et al., J. Lab. Clin. Med. 44, 301, 1954) and the pyocyanin quantified as OD520 after supernatant extraction (Essar et al., J. Bacteriol. 172, 884-900, 1990). Tetracycline (75 mg/L), carbenicillin (300 mg/L), kanamycin (200 mg/L), and gentamicin (100 mg/L) were included as required."}, "[2]": {"conditions": "Pesci et al. 1999; cited from earlier work"}, "phzABC-lacZ reporter": {"tested_on": "phzABC-lacZ reporter", "assay": "phzABC-lacZ reporter activity after exogenous HHQ, wild-type PA14 cells", "assay_type": "cell-based, Pseudomonas aeruginosa PA14", "conditions": "wild-type PA14, 10 mg/L HHQ added to culture medium", "source_text": "To determine whether HHQ is itself involved in signal gene regulation, independently from PQS activity, or whether it functions solely as a PQS precursor, we asked whether exogenous HHQ can stimulate the activity of a phzABC-lacZ reporter carried by wild-type PA14 cells, and by lasR^− mutant cells.\nas §1, with “The reporter fusions phzABC-lacZ and hcnA′-lacZ have been described (Whiteley et al., J. Bacteriol. 182, 4356-60, 2000; Pessi et al., J. Bacteriol. 182, 6940-9, 2000). Plasmids were transformed into PA14 by electroporation (Smith et al., Nuc. Acid. Res. 17, 10509, 1989).” left out, “1972). […]” for “1972).”"}}}
{"smiles": "CCCCCCCc1cc(O)c2ccccc2[n+]1[O-]", "note": "[HQNO, 4-hydroxy-2-heptylquinoline N-oxide]", "values": [{"measurement": "inhibition of Na^+-translocating NADH-quinone oxidoreductases", "setting": "[1]", "value": "inhibits"}, {"measurement": "cytochrome inhibition", "setting": "cytochrome", "value": "widely used cytochrome inhibitor"}, {"measurement": "antimicrobial activity (growth inhibition)", "setting": "Bacillus subtilis", "value": "specific antibacterial activity"}]}
{"smiles": "Nc1ccccc1C(=O)O", "note": "[AA, anthranilic acid]", "values": [{"measurement": "pqsA-lacZ induction (LacZ activity)", "setting": "pqsA-lacZ reporter", "value": "does not"}]}
{"smiles": "CCCCCCCc1nc2ccccc2c(O)c1O", "note": "[PQS, 3,4-dihydroxy-2-heptylquinoline]", "values": [{"measurement": "pqsA-lacZ induction (LacZ activity)", "setting": "pqsA-lacZ reporter", "value": "activates pqsA transcription"}, {"measurement": "induction of pyocyanin production", "setting": "pyocyanin production", "value": "failed to induce pyocyanin production"}, {"measurement": "antibiotic activity", "setting": "[2]", "value": "no antibiotic activity"}]}
{"smiles": "CCCCCCCc1cc(O)c2ccccc2n1", "note": "[HHQ, 4-hydroxy-2-heptylquinoline]", "values": [{"measurement": "induction of pyocyanin production", "setting": "pyocyanin production", "value": "failed to induce pyocyanin production"}, {"measurement": "β-galactosidase activity of phzABC-lacZ reporter", "setting": "phzABC-lacZ reporter", "value": "induces significant and consistent levels of β-galactosidase activity"}]}
